Source: the Kinase Knowledgebase extract (Sharma et al. 2016)

What was measured:
MAPK14 (human) [1] = molecular target: MAPK14 (human) (UniProt Q16539); experiment: Inhibition of TNF-alpha Production from LPS Stimulated PBMC
MAPK14 (human) [2] = molecular target: MAPK14 (human) (UniProt Q16539); experiment: Inhibition of IL-1beta Production from LPS Stimulated PBMC
MAPK14 (human) [3] = molecular target: MAPK14 (human) (UniProt Q16539); experiment: Inhibition of MAPK14 Kinase Activity
MAPK14 (human) [4] = molecular target: MAPK14 (human) (UniProt Q16539); experiment: Inhibition of TNF-alpha Release in LPS Stimulated Whole Blood Culture; conditions: blood cells
MAPK14 (human) [5] = molecular target: MAPK14 (human) (UniProt Q16539); experiment: Inhibition of IL-1 beta Release from LPS Stimulated Whole Blood Culture; conditions: blood cells

Chain of MAPK14 (human) (Q16539 whole entry, looked up): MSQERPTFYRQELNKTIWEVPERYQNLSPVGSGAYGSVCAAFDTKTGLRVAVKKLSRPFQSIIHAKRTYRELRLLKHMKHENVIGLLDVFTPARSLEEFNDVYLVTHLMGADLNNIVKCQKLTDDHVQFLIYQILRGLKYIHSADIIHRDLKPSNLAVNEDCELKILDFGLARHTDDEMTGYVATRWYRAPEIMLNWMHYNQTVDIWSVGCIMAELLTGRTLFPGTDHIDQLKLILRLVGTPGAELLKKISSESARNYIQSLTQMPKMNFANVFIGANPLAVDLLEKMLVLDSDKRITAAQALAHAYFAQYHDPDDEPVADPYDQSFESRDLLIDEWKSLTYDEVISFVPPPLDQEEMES

Molecule COc1ccc(CNc2cc(-c3[nH]c(SCc4ccccc4)nc3-c3ccc(F)cc3)ccn2)cc1 has an IC50 (MAPK14 (human) [1]) of 21 µM and an IC50 (MAPK14 (human) [2]) of 0.18 µM.

For CSc1nc(-c2ccc(F)cc2)c(-c2cc[nH]c(=O)c2)[nH]1, the IC50 (MAPK14 (human) [1]) was 3.1 µM and the IC50 (MAPK14 (human) [2]) was 0.5 µM.

C[S+]([O-])c1ccc(CSc2nc(-c3ccc(F)cc3)c(-c3ccnc(F)c3)[nH]2)cc1 (centres undefined) gave an IC50 (MAPK14 (human) [1]) of 6.9 µM and an IC50 (MAPK14 (human) [2]) of 2.45 µM.

With COc1cc(-c2[nH]c(SC)nc2-c2ccc(F)cc2)ccn1 the IC50 (MAPK14 (human) [1]) was 1.9 µM and the IC50 (MAPK14 (human) [2]) was 0.15 µM.

For CSc1nc(-c2ccc(F)cc2)c(-c2ccnc(NCc3ccccc3)c2)[nH]1, the IC50 (MAPK14 (human) [3]) was 0.65 µM, the IC50 (MAPK14 (human) [1]) was 0.63 µM and the IC50 (MAPK14 (human) [2]) was 0.108 µM.

Work on CC(Nc1cc(-c2[nH]c(SCc3ccccc3)nc2-c2ccc(F)cc2)ccn1)c1ccccc1 (centres undefined) yielded an IC50 (MAPK14 (human) [1]) of 2.7 µM and an IC50 (MAPK14 (human) [2]) of 0.045 µM.

Work on CSc1nc(-c2ccc(F)cc2)c(-c2ccnc(F)c2)[nH]1 yielded an IC50 (MAPK14 (human) [1]) of 2.8 µM and an IC50 (MAPK14 (human) [2]) of 0.3 µM.

Work on CSc1nc(-c2ccc(F)cc2)c(-c2ccnc(Nc3ccccc3)c2)[nH]1 yielded an IC50 (MAPK14 (human) [1]) of 0.34 µM and an IC50 (MAPK14 (human) [2]) of 0.03 µM.

COc1ccc(CNc2cc(-c3[nH]c(SC)nc3-c3ccc(F)cc3)ccn2)cc1 gave an IC50 (MAPK14 (human) [1]) of 0.64 µM and an IC50 (MAPK14 (human) [2]) of 0.056 µM.

With C[S+]([O-])c1ccc(CSc2nc(-c3ccc(F)cc3)c(-c3ccnc(NCc4ccccc4)c3)[nH]2)cc1 (centres undefined) the IC50 (MAPK14 (human) [1]) was 2 µM and the IC50 (MAPK14 (human) [2]) was 0.47 µM.

Fc1ccc(-c2nc(SCc3ccccc3)[nH]c2-c2ccnc(NCc3ccccc3)c2)cc1 gave an IC50 (MAPK14 (human) [1]) of 3.2 µM and an IC50 (MAPK14 (human) [2]) of 0.2 µM.

Work on CSc1nc(-c2ccc(F)cc2)c(-c2ccnc(OC(C)C)c2)[nH]1 yielded an IC50 (MAPK14 (human) [1]) of 4.6 µM, an IC50 (MAPK14 (human) [2]) of 2.7 µM and an IC50 (MAPK14 (human) [4]) of 7.2 µM. For the same molecule, the IC50 (MAPK14 (human) [5]) was 2.2 µM.

CSc1nc(-c2ccc(F)cc2)c(-c2ccnc(NCc3ccc(Cl)cc3)c2)[nH]1 gave an IC50 (MAPK14 (human) [1]) of 0.5 µM, an IC50 (MAPK14 (human) [2]) of 0.15 µM and an IC50 (MAPK14 (human) [4]) of 14.8 µM. The IC50 (MAPK14 (human) [5]) was 13.3 µM.

CSc1nc(-c2ccc(F)cc2)c(-c2ccnc(NCCc3ccccc3)c2)[nH]1 showed an IC50 (MAPK14 (human) [1]) of 0.35 µM, an IC50 (MAPK14 (human) [2]) of 0.031 µM and an IC50 (MAPK14 (human) [4]) of 14.9 µM. It also gave an IC50 (MAPK14 (human) [5]) of 17.1 µM.

C[S+]([O-])c1ccc(CSc2nc(-c3ccc(F)cc3)c(-c3ccnc(Cl)c3)[nH]2)cc1 (centres undefined) was tested, and the IC50 (MAPK14 (human) [1]) was 12 µM and the IC50 (MAPK14 (human) [2]) was 2.1 µM.

Molecule CSc1nc(-c2ccc(F)cc2)c(-c2ccnc(Cl)c2)[nH]1 has an IC50 (MAPK14 (human) [1]) of 2.2 µM and an IC50 (MAPK14 (human) [2]) of 0.35 µM.

Fc1ccc(-c2nc(SCc3ccccc3)[nH]c2-c2ccnc(Cl)c2)cc1 was tested, and the IC50 (MAPK14 (human) [1]) was 60 µM and the IC50 (MAPK14 (human) [2]) was 1.8 µM.

CSc1nc(-c2ccc(F)cc2)c(-c2ccnc(NCc3ccc(Cl)c(Cl)c3)c2)[nH]1 was tested, and the IC50 (MAPK14 (human) [1]) was 0.72 µM and the IC50 (MAPK14 (human) [2]) was 0.23 µM.

In the case of Fc1ccc(-c2nc(SCc3ccccc3)[nH]c2-c2ccnc(F)c2)cc1, the IC50 (MAPK14 (human) [1]) is reported as 40.5 µM and the IC50 (MAPK14 (human) [2]) is reported as 2.9 µM.

CC(Nc1cc(-c2[nH]c(SCc3ccc([S+](C)[O-])cc3)nc2-c2ccc(F)cc2)ccn1)c1ccccc1 (centres undefined) showed an IC50 (MAPK14 (human) [3]) of 0.27 µM, an IC50 (MAPK14 (human) [1]) of 0.91 µM and an IC50 (MAPK14 (human) [2]) of 0.04 µM. It also gave an IC50 (MAPK14 (human) [4]) of 10 µM and an IC50 (MAPK14 (human) [5]) of 15.7 µM.

CSc1nc(-c2ccc(F)cc2)c(-c2ccnc(NCc3ccc(C)cc3)c2)[nH]1 was tested, and the IC50 (MAPK14 (human) [1]) was 0.67 µM, the IC50 (MAPK14 (human) [2]) was 0.085 µM and the IC50 (MAPK14 (human) [4]) was 17.3 µM. It also gave an IC50 (MAPK14 (human) [5]) of 22.3 µM.
